From PubChem BioAssay (NCI)
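Here, GI50 denotes the concentration required for 50% inhibition of growth. At the TGI there is no net growth.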

How the values were obtained:
Experiment in all cases: inhibition of tumour cell growth, NCI panel, 384-well format
SK-OV-3 ovarian = tested on: SK-OV-3 ovarian
DU-145 prostate = tested on: DU-145 prostate
NCI-H322M lung = tested on: NCI-H322M lung
EKVX NSCLC = tested on: EKVX NSCLC
HOP-62 NSCLC = tested on: HOP-62 NSCLC
CAKI-1 renal = tested on: CAKI-1 renal
786-0 renal = tested on: 786-0 renal
HCT-15 colon = tested on: HCT-15 colon
SW-620 colon = tested on: SW-620 colon
OVCAR-8 ovarian = tested on: OVCAR-8 ovarian
K-562 leukemia = tested on: K-562 leukemia
NCI/ADR-RES ovarian = tested on: NCI/ADR-RES ovarian
MDA-MB-468 breast = tested on: MDA-MB-468 breast
RXF 393 renal = tested on: RXF 393 renal
COLO 205 colon = tested on: COLO 205 colon
SF-539 CNS = tested on: SF-539 CNS
SNB-19 CNS = tested on: SNB-19 CNS
MCF7 breast = tested on: MCF7 breast
HS 578T breast = tested on: HS 578T breast
NCI-H522 lung = tested on: NCI-H522 lung
SK-MEL-5 melanoma = tested on: SK-MEL-5 melanoma
RPMI-8226 leukemia = tested on: RPMI-8226 leukemia
UACC-62 melanoma = tested on: UACC-62 melanoma
SK-MEL-28 melanoma = tested on: SK-MEL-28 melanoma
OVCAR-4 ovarian = tested on: OVCAR-4 ovarian
UACC-257 melanoma = tested on: UACC-257 melanoma
SF-268 CNS = tested on: SF-268 CNS
T-47D breast = tested on: T-47D breast
HOP-92 NSCLC = tested on: HOP-92 NSCLC
M14 melanoma = tested on: M14 melanoma
MDA-MB-231 breast = tested on: MDA-MB-231 breast
NCI-H226 lung = tested on: NCI-H226 lung
TK-10 renal = tested on: TK-10 renal
UO-31 renal = tested on: UO-31 renal
SNB-75 CNS = tested on: SNB-75 CNS
OVCAR-5 ovarian = tested on: OVCAR-5 ovarian
LOX IMVI melanoma = tested on: LOX IMVI melanoma
SK-MEL-2 melanoma = tested on: SK-MEL-2 melanoma
BT-549 breast = tested on: BT-549 breast
HCC-2998 colon = tested on: HCC-2998 colon
SF-295 CNS = tested on: SF-295 CNS
KM12 colon = tested on: KM12 colon
OVCAR-3 ovarian = tested on: OVCAR-3 ovarian
U251 glioblastoma = tested on: U251 glioblastoma
HCT-116 colon = tested on: HCT-116 colon
NCI-H23 lung = tested on: NCI-H23 lung
SN12C renal = tested on: SN12C renal
NCI-H460 NSCLC = tested on: NCI-H460 NSCLC
PC-3 prostate = tested on: PC-3 prostate
MDA-MB-435 melanoma = tested on: MDA-MB-435 melanoma
CCRF-CEM leukemia = tested on: CCRF-CEM leukemia
MOLT-4 leukemia = tested on: MOLT-4 leukemia
A549 NSCLC = tested on: A549 NSCLC
MALME-3M melanoma = tested on: MALME-3M melanoma
A498 renal = tested on: A498 renal
IGROV1 ovarian = tested on: IGROV1 ovarian
ACHN renal = tested on: ACHN renal
HT29 colon = tested on: HT29 colon

Cc1cc(C(=O)N[C@@H](CCC(=O)O)C(=O)O)sc1CC[C@@H]1CNc2nc(N)[nH]c(=O)c2C1
GI50 (SK-OV-3 ovarian): < 10 nM | TGI (SK-OV-3 ovarian): 24.5 nM | GI50 (DU-145 prostate): < 10 nM | TGI (DU-145 prostate): < 10 nM | GI50 (NCI-H322M lung): 20.2 nM | TGI (NCI-H322M lung): 39.4 nM | GI50 (EKVX NSCLC): 11.4 nM | TGI (EKVX NSCLC): 27.4 nM | GI50 (HOP-62 NSCLC): 17.9 nM | TGI (HOP-62 NSCLC): 37.8 nM | GI50 (CAKI-1 renal): < 10 nM | TGI (CAKI-1 renal): < 10 nM | GI50 ([…]-0 renal): < 10 nM | TGI (786-0 renal): < 10 nM | GI50 (HCT-15 colon): 25 nM | TGI (HCT-15 colon): 57.8 nM | GI50 (SW-620 colon): 12.4 nM | TGI (SW-620 colon): 30.1 nM | GI50 (OVCAR-8 ovarian): 17 nM | TGI (OVCAR-8 ovarian): 34.6 nM | GI50 (K-562 leukemia): < 10 nM | TGI (K-562 leukemia): < 10 nM | GI50 (NCI/ADR-RES ovarian): 20.1 nM | TGI (NCI/ADR-RES ovarian): 37.3 nM | GI50 (MDA-MB-468 breast): 19.4 nM | TGI (MDA-MB-468 breast): 41.6 nM | GI50 (RXF 393 renal): < 10 nM | TGI (RXF 393 renal): 16.2 nM | GI50 (COLO 205 colon): 25.4 nM | TGI (COLO 205 colon): 56.1 nM | GI50 (SF-539 CNS): < 10 nM | TGI (SF-539 CNS): 21 nM | GI50 (SNB-19 CNS): < 10 nM | TGI (SNB-19 CNS): 23.1 nM | GI50 (MCF7 breast): 15.7 nM | TGI (MCF7 breast): 37 nM | GI50 (HS 578T breast): 15.8 nM | TGI (HS 578T breast): 38.2 nM | GI50 (NCI-H522 lung): 12.7 nM | TGI (NCI-H522 lung): 28.5 nM | GI50 (SK-MEL-5 melanoma): 30.5 nM | TGI (SK-MEL-5 melanoma): 135 nM | GI50 (RPMI-8226 leukemia): 18.2 nM | TGI (RPMI-8226 leukemia): 36.3 nM | GI50 (UACC-62 melanoma): 21 nM | TGI (UACC-62 melanoma): 50.1 nM | GI50 (SK-MEL-28 melanoma): 18.4 nM | TGI (SK-MEL-28 melanoma): 35.9 nM | GI50 (OVCAR-4 ovarian): 20.6 nM | TGI (OVCAR-4 ovarian): 43.5 nM | GI50 (UACC-257 melanoma): 10.2 nM | TGI (UACC-257 melanoma): 27.7 nM | GI50 (SF-268 CNS): < 10 nM | TGI (SF-268 CNS): 20.8 nM | GI50 (T-47D breast): 21.7 nM | TGI (T-47D breast): 60.1 nM | GI50 (HOP-92 NSCLC): < 10 nM | TGI (HOP-92 NSCLC): < 10 nM | GI50 (M14 melanoma): < 10 nM | TGI (M14 melanoma): 20.1 nM | GI50 (MDA-MB-231 breast): 345 nM | TGI (MDA-MB-231 breast): 1200 nM | GI50 (NCI-H226 lung): 17.2 nM | TGI (NCI-H226 lung): 39.4 nM | GI50 (TK-10 renal): < 10 nM | TGI (TK-10 renal): < 10 nM | GI50 (UO-31 renal): < 10 nM | TGI (UO-31 renal): 11.6 nM | GI50 (SNB-75 CNS): < 10 nM | TGI (SNB-75 CNS): < 10 nM | GI50 (OVCAR-5 ovarian): 10.1 nM | TGI (OVCAR-5 ovarian): 23.8 nM | GI50 (LOX IMVI melanoma): 20 nM | TGI (LOX IMVI melanoma): 40 nM | GI50 (SK-MEL-2 melanoma): < 10 nM | TGI (SK-MEL-2 melanoma): 14.7 nM | GI50 (BT-549 breast): 18.3 nM | TGI (BT-549 breast): 35 nM | GI50 (HCC-2998 colon): 33.2 nM | TGI (HCC-2998 colon): 1030 nM | GI50 (SF-295 CNS): 19.4 nM | TGI (SF-295 CNS): 36.8 nM | GI50 (KM12 colon): 28.5 nM | TGI (KM12 colon): 72.7 nM | GI50 (OVCAR-3 ovarian): 19 nM | TGI (OVCAR-3 ovarian): 41.2 nM | GI50 (U251 glioblastoma): < 10 nM | TGI (U251 glioblastoma): < 10 nM | GI50 (HCT-116 colon): < 10 nM | TGI (HCT-116 colon): 24 nM | GI50 (NCI-H23 lung): 39.2 nM | TGI (NCI-H23 lung): 157 nM | GI50 (SN12C renal): < 10 nM | TGI (SN12C renal): < 10 nM | GI50 (NCI-H460 NSCLC): < 10 nM | TGI (NCI-H460 NSCLC): 82.7 nM | GI50 (PC-3 prostate): < 10 nM | TGI (PC-3 prostate): < 10 nM | GI50 (MDA-MB-435 melanoma): 18.5 nM | TGI (MDA-MB-435 melanoma): 36.4 nM | GI50 (CCRF-CEM leukemia): < 10 nM | TGI (CCRF-CEM leukemia): < 10 nM | GI50 (MOLT-4 leukemia): < 10 nM | TGI (MOLT-4 leukemia): < 10 nM | GI50 (A549 NSCLC): 21.5 nM | TGI (A549 NSCLC): 46 nM | GI50 (MALME-3M melanoma): 20 nM | TGI (MALME-3M melanoma): 37.2 nM | GI50 (A498 renal): < 10 nM | TGI (A498 renal): 14.9 nM | GI50 (IGROV1 ovarian): 19.9 nM | TGI (IGROV1 ovarian): 40 nM | GI50 (ACHN renal): < 10 nM | TGI (ACHN renal): 22.5 nM | GI50 (HT29 colon): 17.4 nM | TGI (HT29 colon): 37.2 nM
